Data as given in PubChem BioAssay (NCI).
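Assay format: 96-well plates, 48-hour exposure. TGI: concentration producing complete growth inhibition.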

Tests used:
Assay in all cases: inhibition of tumour cell growth, NCI panel, 48 h
[1] = tested on: RXF-631 renal
[2] = tested on: LXFL 529 NSCLC
[3] = tested on: XF 498 CNS
[4] = tested on: KM20L2 colon
[5] = tested on: DMS 273 small cell lung
[6] = tested on: HOP-18 NSCLC
[7] = tested on: MDA-N

Compound | TGI [1] [µM] | TGI [2] [µM] | TGI [3] [µM] | TGI [4] [µM] | TGI [5] [µM] | TGI [6] [µM] | TGI [7] [µM]
O=C(O)C[C@H]1CCCCC12CCOC2=O (stereo not given in full) | > 100 | > 100 | > 100 | > 100 | > 100 | > 100 | –
Cc1cccc2c1N(C(=O)/C=C\C(=O)O)C(c1c(C)[nH]c3ccccc13)C2 (stereo not given) | – | 28.6 | 40.6 | > 100 | – | – | –
NS(=O)(=O)c1ccc(NC2=CC(=O)C(=O)c3ccccc32)cc1 | – | > 100 | – | > 100 | > 100 | > 100 | –
COC(=O)C(=O)C(C(=O)C(=O)Nc1nc2ccc(C)cc2s1)c1nc2ccc([N+](=O)[O-])cc2[nH]c1=O (stereo not given) | – | – | – | – | – | – | > 100
OCC(O)C(O)C(O)c1nn(-c2ccc(Cl)cc2)c2nc3cc(Cl)c(Cl)cc3nc12 (stereo not given) | – | > 100 | 27.4 | > 100 | > 100 | > 100 | –
CCOC(=O)C1C2CCC(C2)C1(CCl)C(=O)OCC (stereo not given) | > 100 | > 100 | – | > 100 | > 100 | > 100 | –
Cc1ccc(NC(=O)C(=O)C(C#N)c2nc(-c3ccc(-c4ccccc4)cc3)cs2)c(C)c1 (stereo not given) | – | > 100 | – | > 100 | > 100 | > 100 | –
O=C1c2ccccc2C(=O)N1CCN(CCN1C(=O)c2ccccc2C1=O)Cn1cccn1 | > 100 | > 100 | > 100 | > 100 | > 100 | – | –
O=C(c1ccccc1)N1C2CCC1C(C(F)(F)F)=C2C(F)(F)F | > 100 | > 100 | – | > 100 | > 100 | > 100 | –
COc1c(C(=O)c2ccc([N+](=O)[O-])cc2)cc(C(C)(C)C)cc1C(C)(C)C | – | > 100 | 55.1 | > 100 | > 100 | > 100 | –
O=CNc1ncn[nH]1 | – | – | – | – | – | – | > 100
NNC(=O)CNC(=O)c1ccc(Cl)cc1Cl | – | > 100 | > 100 | > 100 | > 100 | > 100 | –
N#Cc1ccccc1NC(=O)C(=O)c1c(O)c2ccccc2oc1=O | – | – | – | – | – | – | > 100
CCCCCCCCOCC(O)COC(=O)CCCCCCC (stereo not given) | > 100 | > 100 | – | > 100 | > 100 | > 100 | –
Cc1cc2c(cc1C)[n+](=O)c(C(=O)C/C(=N/OCCCc1ccccc1)C(=O)Nc1cc(Cl)ccc1Cl)c(C)n2[O-] | > 100 | > 100 | > 100 | > 100 | > 100 | > 100 | –
NC(=O)c1ccc(NN=O)nc1 | – | – | – | – | – | – | > 100
N#Cc1c2c(c(N=P(c3ccccc3)(c3ccccc3)c3ccccc3)n3c1nc1ccccc13)CCCC2 | > 100 | > 100 | – | > 100 | 56.1 | > 100 | –
COC(=O)C(CC(C)C)NC(=O)NC12CC3CC(CC(F)(C3)C1)C2 (stereo not given) | > 100 | > 100 | – | > 100 | – | – | –
COC(=O)C(C(=O)C(=O)Nc1nc(=S)[nH][nH]1)c1csc(-n2nc(-c3ccccc3)cc2-c2ccccc2)n1 (stereo not given) | – | > 100 | – | > 100 | > 100 | – | –
N/N=C(\C(=O)Nc1ccc(Cl)cc1Cl)C(c1cnc2ccccc2n1)[N+](=O)[O-] (stereo not given) | – | – | – | – | – | – | > 100

Compound | TGI [1] [µM] | TGI [2] [µM] | TGI [3] [µM] | TGI [4] [µM] | TGI [5] [µM] | TGI [6] [µM] | TGI [7] [µM]
CCN(CC)CCOc1ccccc1/C=C/c1noc2ccccc12 | – | – | – | – | – | – | 24.1
CC[P+](C)(C)c1ccccc1 | – | > 100 | > 100 | > 100 | > 100 | 49.8 | –
CC1C[C@H](C)CC(C(O)CC2CC(=O)N(Cc3ccccc3)C(=O)C2)C1O (stereo not given in full) | – | > 100 | – | > 100 | > 100 | > 100 | –
CC1(C)C(O)C[C@@H](O)[C@@]2(C)C1CC[C@]1(C)C2C[C@@H](O)[C@@H]2C([C@@]3(C)CC[C@@H](C(C)(C)O)O3)CCC21C (stereo not given in full) | – | 22.4 | 33.7 | 31.2 | 27.7 | 31.1 | –
CC(/C(=N\Nc1ccccc1)c1ccc(O)cc1)C1C(=O)Oc2ccccc21 (stereo not given) | – | > 100 | – | > 100 | > 100 | – | –
CNCc1cc(OC)ccc1-c1ccc(OC)c(OC)c1OC | > 100 | > 100 | > 100 | > 100 | > 100 | > 100 | –
COc1cc(OC)c(/C=C\c2ccnc3ccccc23)c(OC)c1 | – | – | – | – | – | – | 2.03
C=CC(C1=CC(=O)C(OC)=CC1=O)c1ccccc1 (stereo not given) | – | – | – | – | – | – | 31.6
CC1CC(=O)Nc2ccccc2N1C(=O)CN1CCC(CCCCN(C)C)CC1 (stereo not given) | > 100 | > 100 | – | > 100 | > 100 | > 100 | –
O=C1CCC2CC(C(=O)c3ccccc3)CCC2CN1 (stereo not given) (tested in a mixture with another compound) | – | > 100 | – | > 100 | > 100 | > 100 | –
CC1=CC(=C(c2ccc(N)cc2)c2ccc(N)cc2)C=CC1=N | – | 13.6 | 10.3 | 17.6 | – | – | > 40.9
CCOC(=O)CSC(=O)NCCCl | – | > 100 | – | > 100 | > 100 | – | –
CC1SC2=NC3=C(c4ccccc4C3=O)C(c3ccc(Cl)cc3)N2C1=O (stereo not given) | > 100 | > 100 | > 100 | > 100 | > 100 | – | –
CCCCCCCCCCCCCC(=O)OCC1OC(n2cc(F)c(=O)[nH]c2=O)C(NC(=O)OCc2ccccc2)C(OC(=O)CCCCCCCCCCCCC)C1O (stereo not given) | > 100 | > 100 | > 100 | > 100 | > 100 | > 100 | –
CC1=NOC(=O)/C1=C/c1cccc2ccccc12 | – | > 100 | – | > 100 | > 100 | > 100 | –
Cc1ccc(S(=O)(=O)N2CCSCCN(S(=O)(=O)c3ccc(C)cc3)CCN(S(=O)(=O)c3ccc(C)cc3)CC2)cc1 | – | – | – | – | – | – | > 100
CC(=O)Nc1cc(N(CCOS(C)(=O)=O)CCOS(C)(=O)=O)ccc1N=O | – | > 100 | > 100 | > 100 | > 100 | – | –
COC(=O)/C(=N\Nc1nc(=S)[nH]n1N)C(C#N)c1ccccc1 (stereo not given) | – | > 100 | – | > 100 | – | > 100 | –
COc1ccc(C2CC(c3cc(C)ccc3O)=NC(N)=N2)cc1 (stereo not given) | – | > 100 | > 100 | > 100 | > 100 | > 100 | –
CC1(C)CCC2=C(O1)c1ccccc1C(=O)C2=O | – | – | – | – | – | – | 0.363
